In the test the target is LSD-1 enzyme (Homo sapiens (Human), UniProt O60341). It is filed as biochemical. To be noted: 1 nM LSD-1 enzyme, 1 hour preincubation at 25° C., Biotin-labeled Histone H3 peptide substrate. The procedure:
Example A: LSD1 Histone Demethylase Biochemical Assay
LANCE LSD1/KDM1A demethylase assay—10 μL of 1 nM LSD-1 enzyme (ENZO BML-SE544-0050) in the assay buffer (50 mM Tris, pH 7.5, 0.01% Tween-20, 25 mM NaCl, 5 mM DTT) were preincubated for 1 hour at 25° C. with 0.8 μL compound/DMSO dotted in black 384 well polystyrene plates. […] Reactions were stopped by addition of 10 μL 1× LANCE Detection Buffer (PerkinElmer CR97-100) supplemented with 1.5 nM Eu-anti-unmodified H3K4 Antibody (PerkinElmer TRF0404), and 225 nM LANCE Ultra Streptavidin (PerkinElmer TRF102) along with 0.9 mM Tranylcypromine-HCl (Millipore 616431). After stopping the reactions plates were incubated for 30 minutes and read on a PHERAstar FS plate reader (BMG Labtech).
Take `O=C(O)c1cccc(CC2(CN[C@@H]3C[C@H]3c3ccccc3)CCN(Cc3ccccn3)CC2)c1` [Example 32, 3-{[4-({[(1R,2S)-2-phenylcyclopropyl]amino}methyl)-1-(pyridin-2-ylmethyl)piperidin-4-yl]methyl}benzoic Acid]: the IC50 was below 100 nM.
Regarding `CCOCC1(CN[C@@H]2C[C@H]2c2ccccc2)CCN(CCC(=O)O)CC1` [Example 51, 3-[4-(ethoxymethyl)-4-({[(1R,2S)-2-phenylcyclopropyl]amino}methyl)piperidin-1-yl]propanoic Acid], the IC50 was below 100 nM.
As for `O=C(O)CCN1CCC(CN[C@@H]2C[C@H]2c2ccccc2)(COc2ncc(F)cn2)CC1` [Example 46, 3-[4-{[(5-fluoropyrimidin-2-yl)oxy]methyl}-4-({[(1R,2S)-2-phenylcyclopropyl]amino}methyl)piperidin-1-yl]propanoic Acid], the IC50 was below 100 nM.
Regarding `CCN1CCC(CN[C@@H]2C[C@H]2c2ccccc2)(Cc2cccc(C(=O)O)c2)CC1` [Example 29, 3-{[1-ethyl-4-({[(1R,2S)-2-phenylcyclopropyl]amino}methyl)piperidin-4-yl]methyl}benzoic Acid], the IC50 was below 100 nM.
For `COCC1(CN[C@@H]2C[C@H]2c2ccccc2)CCN(CC(C)(C)C(=O)O)CC1` [Example 48, 3-[4-(methoxymethyl)-4-({[(1R,2S)-2-phenylcyclopropyl]amino}methyl)piperidin-1-yl]-2,2-dimethylpropanoic Acid] the value was below 100 nM; for `O=C(O)CCN1CCC(CN[C@@H]2C[C@H]2c2ccccc2)(Cc2ccc(F)cc2F)CC1` [Example 18, 3-[4-(2,4-difluorobenzyl)-4-({[(1R,2S)-2-phenylcyclopropyl]amino}methyl)piperidin-1-yl]propanoic Acid], below 100 nM; for `O=C(O)CCN1CCC(CN[C@@H]2C[C@H]2c2ccccc2)(Cc2ccc(F)c(F)c2)CC1` [Example 20, 3-[4-(3,4-difluorobenzyl)-4-({[(1R,2S)-2-phenylcyclopropyl]amino}methyl)piperidin-1-yl]propanoic Acid], below 100 nM.
As for `O=C(O)c1cccc(CC2(CN[C@@H]3C[C@H]3c3ccccc3)CCN(Cc3cccnc3)CC2)c1` [Example 33, 3-{[4-({[(1R,2S)-2-phenylcyclopropyl]amino}methyl)-1-(pyridin-3-ylmethyl)piperidin-4-yl]methyl}benzoic Acid], the concentration for half-maximal inhibition (IC50) is below 100 nM.
The result for `CN(C)C(=O)CCN1CCC(CN[C@@H]2C[C@H]2c2ccccc2)(Cc2ccc(F)cc2)CC1` [Example 10, 3-[4-(4-fluorobenzyl)-4-({[(1R,2S)-2-phenylcyclopropyl]amino}methyl)piperidin-1-yl]-N,N-dimethylpropanamide] reads below 100 nM; that for `COc1ccc(CC2(CN[C@@H]3C[C@H]3c3ccccc3)CCN(CCC(=O)O)CC2)cn1` [Example 50, 3-[4-[(6-methoxypyridin-3-yl)methyl]-4-({[(1R,2S)-2-phenylcyclopropyl]amino}methyl)piperidin-1-yl]propanoic Acid], below 100 nM.
For `COC(=O)N1CCC(CC#N)(CN[C@@H]2C[C@H]2c2ccccc2)CC1` (relative stereo) [Example 2, Methyl 4-(cyanomethyl)-4-{[(trans-2-phenylcyclopropyl)amino]methyl}piperidine-1-carboxylate] the value was below 100 nM; for `N#Cc1cccc(OCC2(CN[C@@H]3C[C@H]3c3ccccc3)CCN(CCC(=O)O)CC2)c1` [Example 47, 3-[4-[(3-cyanophenoxy)methyl]-4-({[(1R,2S)-2-phenylcyclopropyl]amino}methyl)piperidin-1-yl]propanoic Acid], below 100 nM; for `COCC1(CN[C@@H]2C[C@H]2c2ccccc2)CCN(C(=O)N2CCOCC2)CC1` [Example 49, (1R,2S)—N-{[4-(methoxymethyl)-1-(morpholin-4-ylcarbonyl)piperidin-4-yl]methyl}-2-phenylcyclopropanamine], below 100 nM.
The result for `O=C(O)CCN1CCC(CN[C@@H]2C[C@H]2c2ccccc2)(Cc2ccc(F)cc2)CC1` [Example 8, 3-[4-(4-fluorobenzyl)-4-({[(1R,2S)-2-phenylcyclopropyl]amino}methyl)piperidin-1-yl]propanoic Acid] reads below 100 nM; that for `O=C(O)CCN1CCC(CN[C@@H]2C[C@H]2c2ccccc2)(COCC2CCC2)CC1` [Example 52, 3-[4-[(cyclobutylmethoxy)methyl]-4-({[(1R,2S)-2-phenylcyclopropyl]amino}methyl)piperidin-1-yl]propanoic Acid], below 100 nM.
Compound `C[C@@H](N)C(=O)N1CCC(CN[C@@H]2C[C@H]2c2ccccc2)(Cc2ccc(F)cc2)CC1` [Example 15, (1R,2S)—N-{[1-[(2R)-2-aminopropanoyl]-4-(4-fluorobenzyl)piperidin-4-yl]methyl}-2-phenylcyclopropanamine] displayed an IC50 below 100 nM.
In the case of `N#CCC1(CN[C@@H]2C[C@H]2c2ccccc2)CCNCC1` (relative stereo) [Example 6, (4-{[(trans-2-Phenylcyclopropyl)amino]methyl}piperidin-4-yl)acetonitrile], the concentration for half-maximal inhibition (IC50) was below 100 nM.
Consider `CC(=O)N1CCC(CC#N)(CN[C@@H]2C[C@H]2c2ccccc2)CC1` (relative stereo) [Example 1, (1-Acetyl-4-{[(trans-2-phenylcyclopropyl)amino]methyl}piperidin-4-yl)acetonitrile], for which the IC50 was below 100 nM.
Consider `N#Cc1ccc(CC2(CN[C@@H]3C[C@H]3c3ccccc3)CCN(CCC(=O)O)CC2)cc1` [Example 41, 3-[4-(4-cyanobenzyl)-4-({[(1R,2S)-2-phenylcyclopropyl]amino}methyl)piperidin-1-yl]propanoic Acid], for which the IC50 was below 100 nM.
`O=C(O)CCN1CCC(CN[C@@H]2C[C@H]2c2ccccc2)(COc2ccc(F)cc2)CC1` [Example 39, 3-[4-[(4-fluorophenoxy)methyl]-4-({[(1R,2S)-2-phenylcyclopropyl]amino}methyl)piperidin-1-yl]propanoic Acid] showed an IC50 below 100 nM.
For the compound `O=C(O)c1cccc(CC2(CN[C@@H]3C[C@H]3c3ccccc3)CCN(C3CCOCC3)CC2)c1` [Example 31, 3-{[4-({[(1R,2S)-2-phenylcyclopropyl]amino}methyl)-1-(tetrahydro-2H-pyran-4-yl)piperidin-4-yl]methyl}benzoic Acid], the concentration for half-maximal inhibition (IC50) was below 100 nM.
Turning to `O=C(O)CCN1CCC(CN[C@@H]2C[C@H]2c2ccccc2)(COc2ccc(F)cn2)CC1` [Example 45, 3-[4-{[(5-fluoropyridin-2-yl)oxy]methyl}-4-({[(1R,2S)-2-phenylcyclopropyl]amino}methyl)piperidin-1-yl]propanoic Acid], the half-inhibitory concentration (IC50) was below 100 nM.
Take `O=C(O)CCN1CCC(CN[C@@H]2C[C@H]2c2ccccc2)(COc2cccc(F)c2)CC1` [Example 38, 3-[4-[(3-fluorophenoxy)methyl]-4-({[(1R,2S)-2-phenylcyclopropyl]amino}methyl)piperidin-1-yl]propanoic Acid]: the IC50 was below 100 nM.
In turn, `O=C(O)CCN1CCC(CN[C@@H]2C[C@H]2c2ccccc2)(Cc2ccccc2F)CC1` [Example 16, 3-[4-(2-fluorobenzyl)-4-({[(1R,2S)-2-phenylcyclopropyl]amino}methyl)piperidin-1-yl]propanoic Acid] gave a half-inhibitory concentration (IC50) below 100 nM.

The values above are taken from patent US10300051B2, “Cyclopropylamines as LSD1 inhibitors” (priority 2014, dated 2019).
